From patent EP4335865A1, “INTERACTION BETWEEN A GLYCOLIPID AND MAJOR CAPSID PROTEIN (VP1) OF SHEEP POLYOMAVIRUS AND, METHODS, KITS AND USES THEREOF” (Eberhard-Karls-Universität Tübingen, priority 2022, dated 2024)

Columns and labels:
[1] = tested on: ShPyV VP1; experiment: Saturation-transfer difference (STD) NMR in solution; assay type: binding, sheep polyomavirus (ShPyV); details: 1 mM Forssman pentaose and 1 mM 6'SL in presence of 20 µM ShPyV VP1, 298 K
Source text: To assess whether the interaction of ShPyV VP1 to Forssman pentaose (FP), the glycan portion of Forssman glycolipid, also occurs in a more physiologic setting (i.e., in solution), the inventors conducted a saturation-transfer difference (STD) NMR experiment. […] Thereby, the protein resonances remain invisible. 59,60 The inventors recorded the STD-NMR resonances from a sample comprising VP1 and the oligosaccharides Forssman pentaose and 6sialyllactose (6'SL) as ligands, for which the inventors also provide reference spectra (Fig. 2B-C). […] Since excitation transfer heavily falls off with distance, VP1 is expected to contact an extensive portion of FP during the binding event.
All nuclear magnetic resonance (NMR) data were collected in a Bruker AVIII-600 MHz spectrometer equipped with a TXI-z probe head at 298 K. The inventors performed the experiments using 3 mm NMR tubes. Samples were provided in 99 % D2O-PBS containing 20 mM KH2PO4/K2HPO4 (pH 7.4) and 150 mM NaCl. Initially, ^1H reference spectra of isolate oligosaccharides samples (4 mM Forssman pentaose and 2 mM 6'SL, respectively) were recorded. Subsequently, the ^1H resonances of a sample comprising 1 mM Forssman pentaose and 1 mM 6'SL in presence of 20 µM ShPyV VP1 were collected. From the same sample, the saturation difference transfer (STD) NMR experiment was performed. […]

[2] = tested on: major capsid protein VP1 of sheep polyomavirus (ShPyV); experiment: Glycan microarray screening of recombinant VP1; assay type: binding; details: broad spectrum glycan microarray of over 900 different carbohydrate structures
Source text: To identify potential attachment factors of sheep polyomavirus (ShPyV), the inventors subjected the recombinantly expressed major capsid protein VP1 to broad spectrum glycan microarray screening of over 900 different carbohydrate structures (Fig. 1A). […] Among the four strongest reliable signals in the glycan array, which are depicted in figure 1, two stem from glycans carrying α→6 linked sialic acids, which are 9-O-Acetyl-N-acetylneuraminic acid (Neu5,9Ac) and N-glycolyl-neuraminic acid (Neu5Gc).
Among all carbohydrates in the glycan array the Forssman glycolipid is the only probe that features the Forssman disaccharide GalNAcα→3GalNAcβ.

[3] = tested on: ShPyV VP1; experiment: Derivatization of VP1 crystals with oligosaccharides and structure solution; assay type: binding, sheep polyomavirus (ShPyV); details: crystals soaked with oligosaccharide (10 mM globo-N-tetraose)
Source text: The inventors presume that the Forssman disaccharide GalNAcα^5→3GalNAc^4, which promotes the hydrophobic interactions to VP1, is the main determinant for tropism. To corroborate this hypothesis, the inventors derivatized ShPyV VP1 crystals with globo-N-tetraose (Gb4), the glycan of the globoseries P antigen and molecular precursor of FP, and determined the structure of the complex (Table S2).
Additionally, the structural elucidation of the VP1-FP complex allows for the superposition of the epitopes of other aGalNAc antigens such as A (GalNAcα→3(Fucα→2)Gal-R) and Tn (GalNAcα→O-Ser/Thr) into the identified Forssman binding site.
Purified ShPyV VP1 was concentrated to 3.5 mg/ml. Crystallization droplets were set up comprising 1 µl protein and 1 µl reservoir solution (150 mM KSCN and 20 % (w/v) PEG 3,350). The droplets were equilibrated against the 500 µl reservoir using the hanging drop vapor diffusion method at 20 °C. For ligand derivatization, VP1 crystals were soaked in crystallization solution supplemented with the respective oligosaccharides (10 mM FA pentaose, 10 mM globo-N-tetraose, 5 mM FA pentaose + 20 mM 3'SLN, and 5 mM pentaose + 20 mM 6'SLN), at 20 °C for half an hour. Prior to flash freezing, crystals were transferred to soaking solutions supplemented with 20 % (v/v) MPD for cryo-protection. X-ray diffraction experiments were performed using the Swiss Light Source (SLS) beamline X06DA at the PSI (Villigen, Switzerland). Data were collected at a wavelength of 1 Å and an excitation time and angle of 0.1 s and 0.1° per image, respectively. All carbohydrates were purchased from Carbosynth, UK.
X-ray diffraction images were integrated and scaled using XDS software. For each data set, 2000-3000 reflections were reserved as a test set for structure validation. Phases were determined by molecular replacement using the native sheep polyomavirus VP1 structure as search model (PDB ID 6Y61) in PHASER (CCP4). […]

[4] = tested on: FORS+ cell binding by HPA; experiment: Inhibition assay of HPA binding to ovine blood cells; assay type: cell-based, sheep; details: exceeding amounts of trisaccharide inhibitor (Fig. 5C)
Method: The inventors also examine the engagement of FORS- human erythrocytes by ShPyV VP1 and compare the results to HPA, which is a commonly used indicator for aberrant glycosylation in cancerogenesis. […] In contrast, FORS+ cell binding by HPA is inhibited by exceeding amounts of both F-tri and A-tri (Fig. 5C).
Erythrocytes from defibrinated blood were diluted into FACS buffer (1× PBS + 2 % FCS) to a density of 10×10^6 cells / mL. Samples of 1×10^6 cells were incubated with labeled protein at room temperature for 30 minutes with occasional shaking. Samples were then directly transferred to the flow cytometer (LSR II, BD Biosciences). Singlet cells were gated and the fluorescent population was captured at […]. M1/87-FITC (Santa Cruz Biotechnology) and HPA Alexa Fluor™ 488 conjugate (Invitrogen), respectively were used as references. Defibrinated sheep and bovine blood were purchased from TCS Biosciences Ltd and BioTrading Benelux B.V., respectively.

[5] = target: ShPyV VP1; experiment: Crystallographic affinity determination (glycan dilution series in VP1 crystals); assay type: binding, sheep polyomavirus (ShPyV); details: approximate; integrated FP electron density vs concentration, Michaelis-Menten approach; 10 mM down to 0.0195 mM FP; read-out: dissociation constant between VP1 and FP (crystallographic, Kdc)
Source text: Due to the costliness of Forssman glycans, conventional biophysical affinity determination techniques were not applied. To still establish an approximate dissociation constant value, the inventors derivatize isomorphous ShPyV VP1 crystals with serially diluted Forssman pentaose (FP) solution and collect the diffraction data.
To approximate the affinity towards FA pentaose (FP) the inventors prepared a glycan dilution series in VP1 crystals, an approach that was successfully utilized in the past. [16,23]_VP1 crystals were grown as described above. The reference soaking solution (10 mM FP in 150 mM KSCN, 20 % (w/v) PEG 3,350 and 20 % (v/v) MPD) was diluted using 1:2 steps down to a final concentration of 0.0195 mM. Distinct crystals and equal soaking times were used for the parallel derivatization with FP at the different concentrations. Data collection was performed as described above. For processing, the unit cell constants of all data sets were treated as isomorphous. All diffraction intensities were scaled against the 10 mM FP reference data set using scaleit. A single structure solution was sufficient for all data sets. A VP1 model lacking all water and carbohydrate atoms, and a control tripeptide (AA 143-145) in all chains, was used for simulated annealing refinement (Phenix). […]

[6] = target: human Gal-9 carbohydrate recognition domain (CRD) (Homo sapiens, UniProt O00182); details: carbohydrate library screening, reference 62; cited from earlier work
Chain of human Gal-9 carbohydrate recognition domain (CRD) (O00182 1-148 limits assumed): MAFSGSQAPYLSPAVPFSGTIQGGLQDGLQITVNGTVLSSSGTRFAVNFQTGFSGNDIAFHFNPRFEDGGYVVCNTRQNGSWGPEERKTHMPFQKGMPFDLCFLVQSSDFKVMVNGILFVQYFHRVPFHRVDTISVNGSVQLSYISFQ

CC(=O)N[C@H]1[C@H]([C@H](O)[C@H](O)CO)O[C@@](OC[C@H]2O[C@@H](O[C@H]3[C@H](O)[C@@H](O)[C@H](O)O[C@@H]3CO)[C@H](O)[C@@H](O)[C@H]2O)(C(=O)O)C[C@@H]1O [6'SL, 6'sialyllactose]
STD-NMR binding to VP1 [1]: signal of a third methyl group in the STD-NMR spectrum manifests as the only transferred resonance

CC(=O)N[C@H]1[C@H]([C@H](O)[C@H](O)CO)O[C@](OC[C@H]2O[C@@H](O[C@H]3[C@H](O)[C@@H](NC(C)=O)C(O)O[C@@H]3CO)[C@H](O)[C@@H](O)[C@H]2O)(C(=O)O)C[C@@H]1O (stereo partly shown) [6'sialyllactosamine]
glycan array response (binding to VP1) [2]: relatively weak

CC(=O)N[C@H]1[C@@H](O[C@H]2[C@@H](O)[C@@H](CO)O[C@@H](O)[C@@H]2O[C@@H]2O[C@@H](C)[C@@H](O)[C@@H](O)[C@@H]2O)O[C@H](CO)[C@H](O)[C@@H]1O [A antigen trisaccharide]
ligand electron density / binding in derivatized VP1 crystals [3]: unliganded VP1 pentamers
inhibition of FORS+ cell binding by HPA [4]: inhibited

CC(=O)N[C@H]1[C@@H](O[C@H]2[C@@H](O)[C@@H](CO)O[C@@H](O[C@H]3[C@@H](O)[C@@H](CO)O[C@H](O[C@@H]4[C@H](O)[C@@H](O)[C@H](O[C@H]5[C@H](O)[C@@H](O)C(O)O[C@@H]5CO)O[C@@H]4CO)[C@@H]3O)[C@@H]2NC(C)=O)O[C@H](CO)[C@H](O)[C@@H]1O (stereo partly shown) [FP, GalNAcα^5→3GalNAcβ^4→3Galα^3→4Galβ^2→4Glc^1]
STD-NMR binding to VP1 [1]: binding of FP to VP1
Kd [5]: ~38.2 µM
Kd [6]: 0.3 µM

CC(=O)N[C@H]1C(O)O[C@H](CO[C@@H]2O[C@H](CO)[C@H](O)[C@H](O)[C@H]2O)[C@H](O)[C@@H]1O (stereo partly shown) [Galβ-6GalNAc disaccharide, Galβ-6GalNAc]
glycan array response (binding to VP1) [2]: relatively strong signal

CC(=O)NC1C(OC2C(O)C(CO)OC(OC3C(CO)OC(OC4C(CO)OC(O)C(O)C4O)C(O)C3O)C2O)OC(CO)C(O)C1O (stereo not shown) [Gb4, globo-N-tetraose]
ligand electron density / binding in derivatized VP1 crystals [3]: negligible binding affinity

GD3 tetraose
glycan array response (binding to VP1) [2]: relatively weak

GM1 pentaose
glycan array response (binding to VP1) [2]: relatively weak

GTic oligosaccharide
glycan array response (binding to VP1) [2]: relatively weak

GalNAcα1→3GalNAcβ1→3Galα1→4Galβ1→4Glcβ1->1Cer [Forssman glycolipid]
glycan array response (binding to VP1) [2]: surprisingly strong response

GalNAcα→3(Fucα→2)Gal-R [A antigen]
glycan array response (binding to VP1) [2]: no significant binding

GalNAcα→O-Ser/Thr [Tn antigen]
glycan array response (binding to VP1) [2]: no significant binding

Galβ→3-Tn [T antigen]
ligand electron density / binding in derivatized VP1 crystals [3]: unliganded VP1 pentamers
